pIC50: −log10 of the molar value.
Target: SHP2 (Homo sapiens (Human), UniProt Q06124)
Experiment: SHP2 Allosteric Inhibition Assay
Format: biochemical
Conditions: 0.5 nM SHP2 activated with 0.5 μM peptide IRS1_pY1172(dPEG8)pY1222; surrogate substrate DiFMUP; prompt fluorescence
Text: SHP2 Allosteric Inhibition Assay
SHP2 is allosterically activated through binding of bis-tyrosyl-phorphorylated peptides to its Src Homology 2 (SH2) domains. The latter activation step leads to the release of the auto-inhibitory interface of SHP2, which in turn renders the SHP2 protein tyrosine phosphatase (PTP) active and available for substrate recognition and reaction catalysis. The catalytic activity of SHP2 was monitored using the surrogate substrate DiFMUP in a prompt fluorescence assay format.
After 30-60 minutes incubation at 25° C., the surrogate substrate DiFMUP (Invitrogen, cat #D6567) was added to the reaction and incubated at 25° C. for 30 minutes. […] The inhibitor dose response curves were analyzed using normalized IC50 regression curve fitting with control based normalization.

Row | SMILES | pIC50
1 | NCC1(F)CCN(c2cnc(Sc3cccc(NC(=O)c4c(O)nc5ccccn5c4=O)c3Cl)c(N)n2)CC1 [Example 15, N-(3-((3-amino-5-(4-(aminomethyl)-4-fluoropiperidin-1-yl)pyrazin-2-yl)thio)-2-chlorophenyl)-2-hydroxy-4-oxo-4H-pyrido[1,2-a]pyrimidine-3-carboxamide] | 8.00
2 | Nc1nc(N2CCC(N)(CF)CC2)cnc1Sc1cccc(NC(=O)c2c(O)nc3n(c2=O)CCCC3)c1Cl [Example 14, N-(3-((3-amino-5-(4-amino-4-(fluoromethyl)piperidin-1-yl)pyrazin-2-yl)thio)-2-chlorophenyl)-2-hydroxy-4-oxo-6,7,8,9-tetrahydro-4H-pyrido[1,2-a]pyrimidine-3-carboxamide] | 8.23
3 | Nc1nc(N2CCC3(CC2)CCC(F)(F)[C@H]3N)cnc1Sc1cccc(NC(=O)c2c(O)nc3ccccn3c2=O)c1Cl [Example 22, (S)-N-(3-((3-amino-5-(1-amino-2,2-difluoro-8-azaspiro[4.5]decan-8-yl)pyrazin-2-yl)thio)-2-chlorophenyl)-2-hydroxy-4-oxo-4H-pyrido[1,2-a]pyrimidine-3-carboxamide] | 8.00
4 | CC1(CN)CCN(c2cnc(Sc3cccc(NC(=O)c4c(O)nc5n(c4=O)CCNC5)c3Cl)c(N)n2)CC1 [Example 9, N-(3-((3-amino-5-(4-(aminomethyl)-4-methylpiperidin-1-yl)pyrazin-2-yl)thio)-2-chlorophenyl)-2-hydroxy-4-oxo-6,7,8,9-tetrahydro-4H-pyrazino[1,2-a]pyrimidine-3-carboxamide] | 8.15
5 | CC1(CN)CCN(c2cnc(Sc3cccc(NC(=O)c4c(O)nc5ccccn5c4=O)c3Cl)c(N)n2)CC1 [Example 2, N-(3-((3-amino-5-(4-(aminomethyl)-4-methylpiperidin-1-yl)pyrazin-2-yl)thio)-2-chlorophenyl)-2-hydroxy-4-oxo-4H-pyrido[1,2-a]pyrimidine-3-carboxamide] | 8.15
6 | CC1(CN)CCN(c2cnc(Sc3cccc(NC(=O)c4c(O)nc5[nH]ccn5c4=O)c3Cl)c(N)n2)CC1 [Example 6, N-(3-((3-amino-5-(4-(aminomethyl)-4-methylpiperidin-1-yl)pyrazin-2-yl)thio)-2-chloropheny1)-7-hydroxy-5-oxo-1,5-dihydroimidazo[1,2-a]pyrimidine-6-carboxamide] | 8.30
7 | Nc1nc(N2CCC3(CCC[C@H]3N)CC2)cnc1Sc1cccc(NC(=O)c2c(O)nc3ccccn3c2=O)c1Cl [Example 23, (R)-N-(3-((3-amino-5-(1-amino-8-azaspiro[4.5]decan-8-yl)pyrazin-2-yl)thio)-2-chlorophenyl)-2-hydroxy-4-oxo-4H-pyrido[1,2-a]pyrimidine-3-carboxamide] | 8.30
8 | C[C@@H]1OCC2(CCN(c3cnc(Sc4cccc(NC(=O)c5c(O)nc6n(c5=O)CCCC6)c4Cl)c(N)n3)CC2)[C@@H]1N [Example 27, N-(3-((3-Amino-5-((3S,4S)-4-amino-3-methyl-2-oxa-8-azaspiro[4.5]decan-8-yl)pyrazin-2-yl)thio)-2-chlorophenyl)-2-hydroxy-4-oxo-6,7,8,9-tetrahydro-4H-pyrido[1,2-a]pyrimidine-3-carboxamide] | 7.64
9 | Nc1nc(N2CCC(C(N)C(F)(F)F)C2)cnc1Sc1cccc(NC(=O)c2c(O)nc3ccccn3c2=O)c1Cl (stereo not shown) [Example 18, N-(3-((3-amino-5-(3-(1-amino-2,2,2-trifluoroethyl)pyrrolidin-1-yl)pyrazin-2-yl)thio)-2-chlorophenyl)-2-hydroxy-4-oxo-4H-pyrido[1,2-a]pyrimidine-3-carboxamide] | 6.10
10 | NCC1(F)CCN(c2cnc(Sc3cccc(NC(=O)c4c(O)nc5n(c4=O)CCCC5)c3Cl)c(N)n2)CC1 [Example 16, N-(3-((3-amino-5-(4-(aminomethyl)-4-fluoropiperidin-1-yl)pyrazin-2-yl)thio)-2-chlorophenyl)-2-hydroxy-4-oxo-6,7,8,9-tetrahydro-4H-pyrido[1,2-a]pyrimidine-3-carboxamide] | 8.10
11 | N#CC1(CN)CCN(c2cnc(Sc3cccc(NC(=O)c4c(O)nc5n(c4=O)CCCC5)c3Cl)c(N)n2)CC1 [Example 12, N-(3-((3-amino-5-(4-(aminomethyl)-4-cyanopiperidin-1-yl)pyrazin-2-yl)thio)-2-chlorophenyl)-2-hydroxy-4-oxo-6,7,8,9-tetrahydro-4H-pyrido[1,2-a]pyrimidine-3-carboxamide] | 6.59

The next lines start with the values.

Row | pIC50 | SMILES
12 | 8.36 | CC1(N)CCN(c2cnc(Sc3cccc(NC(=O)C4=C(O)CN(c5ccccc5)C4=O)c3Cl)c(N)n2)CC1 [Example 53, N-(3-((3-amino-5-(4-amino-4-methylpiperidin-1-yl)pyrazin-2-yl)thio)-2-chlorophenyl)-4-hydroxy-2-oxo-1-phenyl-2,5-dihydro-1H-pyrrole-3-carboxamide]
13 | 7.92 | CC1(CN)CCN(c2nnc(Sc3cccc(NC(=O)c4c(O)nc5n(c4=O)CCCC5)c3Cl)c(N)n2)CC1 [Example 36, N-(3-((5-amino-3-(4-(aminomethyl)-4-methylpiperidin-1-yl)-1,2,4-triazin-6-yl)thio)-2-chlorophenyl)-2-hydroxy-4-oxo-6,7,8,9-tetrahydro-4H-pyrido[1,2-a]pyrimidine-3-carboxamide]
14 | 7.80 | Nc1nc(N2CCC3(CCC[C@H]3N)CC2)nnc1Sc1cccc(NC(=O)c2c(O)nc3ccccn3c2=O)c1Cl [Example 42, (R)-N-(3-((5-amino-3-(1-amino-8-azaspiro[4.5]decan-8-yl)-1,2,4-triazin-6-yl)thio)-2-chlorophenyl)-2-hydroxy-4-oxo-4H-pyrido[1,2-a]pyrimidine-3-carboxamide]
15 | 7.28 | CCC1C(O)=C(C(=O)Nc2cccc(Sc3ccc4nc(N5CCCCC5)[nH]c4n3)c2Cl)C(=O)N1c1ccccc1 (stereo not shown) [Example 63, N-(2-chloro-3-((2-(piperidin-1-yl)-3H-imidazo[4,5-b]pyridin-5-yl)thio)phenyl)-5-ethyl-4-hydroxy-2-oxo-1-phenyl-2,5-dihydro-1H-pyrrole-3-carboxamide]
16 | 7.46 | CC1(CN)CCN(c2nnc(Sc3cccc(NC(=O)c4c(O)nc5[nH]ccn5c4=O)c3Cl)c(N)n2)CC1 [Example 35, N-(3-((5-amino-3-(4-(aminomethyl)-4-methylpiperidin-1-yl)-1,2,4-triazin-6-yl)thio)-2-chlorophenyl)-7-hydroxy-5-oxo-1,5-dihydroimidazo[1,2-a]pyrimidine-6-carboxamide]
17 | 6.76 | CC1(CN)CCN(c2nnc(Sc3cccc(NC(=O)c4ccc5ccccn5c4=O)c3Cl)c(N)n2)CC1 [Example 40, N-(3-((5-amino-3-(4-(aminomethyl)-4-methylpiperidin-1-yl)-1,2,4-triazin-6-yl)thio)-2-chlorophenyl)-4-oxo-4H-quinolizine-3-carboxamide]
18 | 8.18 | CNC1(C)CCN(c2cnc(Sc3cccc(NC(=O)C4=C(O)CN(c5ccccc5)C4=O)c3Cl)c(N)n2)CC1 [Example 56, N-(3-((3-amino-5-(4-methyl-4-(methylamino)piperidin-1-yl)pyrazin-2-yl)thio)-2-chlorophenyl)-4-hydroxy-2-oxo-1-phenyl-2,5-dihydro-1H-pyrrole-3-carboxamide]
19 | 7.96 | C[C@@H]1CN(c2cnc(Sc3cccc(NC(=O)C4=C(O)CN(c5ccccc5)C4=O)c3Cl)c(N)n2)C[C@H](C)N1 [Example 57, N-(3-((3-amino-5-(cis-3,5-dimethylpiperazin-1-yl)pyrazin-2-yl)thio)-2-chlorophenyl)-4-hydroxy-2-oxo-1-phenyl-2,5-dihydro-1H-pyrrole-3-carboxamide]
20 | 8.15 | CC1(CN)CCN(c2cnc(Sc3cccc(NC(=O)c4c(O)nc5n(c4=O)CCCC5)c3Cl)cn2)CC1 [Example 45, N-(3-((5-(4-(aminomethyl)-4-methylpiperidin-1-yl)pyrazin-2-yl)thio)-2-chlorophenyl)-2-hydroxy-4-oxo-6,7,8,9-tetrahydro-4H-pyrido[1,2-a]pyrimidine-3-carboxamide]
21 | > 8.52 | CN1C(=O)C(C(=O)Nc2cccc(Sc3ncc(N4CCC(C)(N)CC4)nc3N)c2Cl)=C(O)C1(C)C [Example 59, N-(3-((3-amino-5-(4-amino-4-methylpiperidin-1-yl)pyrazin-2-yl)thio)-2-chlorophenyl)-4-hydroxy-1,5,5-trimethyl-2-oxo-2,5-dihydro-1H-pyrrole-3-carboxamide]
22 | 7.66 | CN1C(=O)C(C(=O)Nc2cccc(Sc3ccc4nc(N5CCCCC5)[nH]c4n3)c2Cl)=C(O)C1Cc1ccccc1 (stereo not shown) [Example 61, 5-benzyl-N-(2-chloro-3-((2-(piperidin-1-yl)-3H-imidazo[4,5-b]pyridin-5-yl)thio)phenyl)-4-hydroxy-1-methyl-2-oxo-2,5-dihydro-1H-pyrrole-3-carboxamide]
23 | 7.60 | CCC1C(O)=C(C(=O)Nc2cccc(Sc3ccc4nc(N5CCCCC5)[nH]c4n3)c2Cl)C(=O)N1C (stereo not shown) [Example 62, N-(2-chloro-3-((2-(piperidin-1-yl)-3H-imidazo[4,5-b]pyridin-5-yl)thio)phenyl)-5-ethyl-4-hydroxy-1-methyl-2-oxo-2,5-dihydro-1H-pyrrole-3-carboxamide]
24 | 7.96 | O=C(Nc1cccc(Sc2ccc3nc(N4CCCCC4)[nH]c3n2)c1Cl)C1=C(O)[C@H](Cc2ccccc2)NC1=O [Example 60, (S)-5-benzyl-N-(2-chloro-3-((2-(piperidin-1-yl)-3H-imidazo[4,5-b]pyridin-5-yl)thio)phenyl)-4-hydroxy-2-oxo-2,5-dihydro-1H-pyrrole-3-carboxamide]
25 | 7.96 | CC1(N)CCN(c2nnc(Sc3cccc(NC(=O)c4c(O)nc5ccccn5c4=O)c3Cl)c(N)n2)CC1 [Example 41, N-(3-((5-amino-3-(4-amino-4-methylpiperidin-1-yl)-1,2,4-triazin-6-yl)thio)-2-chlorophenyl)-2-hydroxy-4-oxo-4H-pyrido[1,2-a]pyrimidine-3-carboxamide]

Reference: US10934285B2, “Compounds and compositions for inhibiting the activity of SHP2” (Novartis AG, priority 2016, dated 2021)
